{"source": "BindingDB's records for doi:10.7270/Q2QZ28D7", "about": "(Burnham Center For Chemical Genomics, 2009)", "data": [{"target": "his6-Siah1 (aa 81-282) (Homo sapiens, UniProt Q8IUQ4)", "sequence (Q8IUQ4 whole entry, looked up, the tested form may be a part)": "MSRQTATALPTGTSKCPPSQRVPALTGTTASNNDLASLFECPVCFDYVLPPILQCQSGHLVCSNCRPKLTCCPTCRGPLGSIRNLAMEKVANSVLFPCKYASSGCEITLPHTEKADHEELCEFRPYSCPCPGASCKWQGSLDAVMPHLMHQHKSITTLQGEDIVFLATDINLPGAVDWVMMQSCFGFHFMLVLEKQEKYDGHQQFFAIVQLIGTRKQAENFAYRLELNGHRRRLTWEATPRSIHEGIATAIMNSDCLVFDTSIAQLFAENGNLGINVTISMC", "test": "blockers of Siah-1 interaction with plectin peptide – biochemical, fluorescence polarization, rhodamine-plectin, uHTS, primary screen (AID 1817)", "settings": "not given", "units": {"IC50": "µM"}, "values": [{"smiles": "C[N+]1(CCNC(=O)CN=O)CCCCC1", "IC50": "> 200"}, {"smiles": "CCOC(=O)C1(C)CC(=Nc2ccc(O)cc2)C(=O)N1c1ccc(O)cc1", "note": "(centres undefined)", "IC50": "> 200"}, {"smiles": "CC1(C)Cc2c(sc(N=CN3CCCCCC3)c2C#N)C(C)(C)N1", "IC50": "> 200"}, {"smiles": "COc1cc(NS(=O)(=O)c2ccc(NC(=S)NC(=O)C=Cc3ccc(F)cc3)cc2)ncn1", "IC50": "> 200"}, {"smiles": "CN1/C(=C\\C=C\\C2=[N+](C)c3ccc4ccccc4c3C2(C)C)C(C)(C)c2ccccc21", "note": "[1,1,3-trimethyl-2-[(E,3Z)-3-(1,3,3-trimethyl-2-indolylidene)prop-1-enyl]benzo[e]indol-3-ium;perchlorate]", "IC50": "> 200"}, {"smiles": "CN(Cc1c(C(=O)NN=Cc2ccc(F)cc2)nnn1-c1nonc1N)C1CCCCC1", "note": "[1-(4-amino-1,2,5-oxadiazol-3-yl)-5-[[cyclohexyl(methyl)amino]methyl]-N-[(4-fluorophenyl)methylideneamino]triazole-4-carboxamide]", "IC50": "> 200"}, {"smiles": "Fc1ccc(C=NNC(=S)Nc2cccnc2)cc1F", "note": "[1-[[3,4-bis(fluoranyl)phenyl]methylideneamino]-3-pyridin-3-yl-thiourea]", "IC50": "> 200"}, {"smiles": "CCN(CC)CCOC(=O)c1ccc(N=CC(C#N)c2nc(-c3cc4ccccc4oc3=O)cs2)cc1", "note": "(centres undefined) [2-(diethylamino)ethyl 4-[[(Z)-2-cyano-2-[4-(2-oxochromen-3-yl)-1,3-thiazol-2-yl]ethenyl]amino]benzoate]", "IC50": 11.2}, {"smiles": "CCOC(=O)C1=C(C)N=c2sc(=Cc3ccc(OCC(=O)O)cc3)c(=O)n2C1c1ccc(Cl)cc1", "note": "(centres undefined) [2-[4-[[5-(4-chlorophenyl)-6-ethoxycarbonyl-7-methyl-3-oxidanylidene-5H-[1,3]thiazolo[3,2-a]pyrimidin-2-ylidene]methyl]phenoxy]ethanoic acid]", "IC50": "> 200"}, {"smiles": "CCN(CC)c1ccc(C=c2sc3nnc(-c4ccccc4Cl)n3c2=O)cc1", "note": "[3-(2-chlorophenyl)-6-[4-(diethylamino)benzylidene][1,3]thiazolo[2,3-c][1,2,4]triazol-5(6H)-one]", "IC50": "> 200"}, {"smiles": "COC(=O)c1cccc(Cn2c(Cl)c(C=NNC(=O)c3ccccc3Cl)sc2=O)c1", "note": "[3-{4-Chloro-5-[(2-chloro-benzoyl)-hydrazonomethyl]-2-oxo-thiazol-3-ylmethyl}-benzoic acid methyl ester]", "IC50": "> 200"}, {"smiles": "O=C(Nc1ccc(Br)cc1)c1ccc(-n2c(O)c3c(c2O)CC=CC3)cc1", "note": "[4-[1,3-bis(oxidanylidene)-3a,4,7,7a-tetrahydroisoindol-2-yl]-N-(4-bromophenyl)benzamide]", "IC50": 18.6}, {"smiles": "CC(C)(C)c1cc(-c2cs/c(=N\\c3ccccc3)n2Cc2ccc(C(=O)O)cc2)cc(C(C)(C)C)c1O", "note": "[4-[[4-(3,5-ditert-butyl-4-oxidanyl-phenyl)-2-phenylazanyl-1,3-thiazol-3-ium-3-yl]methyl]benzoic acid;bromide]", "IC50": "> 200"}, {"smiles": "O=C(NN=Cc1cccc(Br)c1)c1ccc(Br)cc1", "note": "[4-bromanyl-N-[(3-bromophenyl)methylideneamino]benzamide]", "IC50": "> 200"}, {"smiles": "COc1ccc(NC2=NC(=O)SC2=Cc2ccc(N(C)C)cc2)cc1", "note": "[(5Z)-5-[[4-(dimethylamino)phenyl]methylidene]-4-(4-methoxyanilino)-1,3-thiazol-2-one]", "IC50": "> 200"}, {"smiles": "CCOC(=O)C(C#N)=c1sc(=C2C=Cc3ccccc3N2CC)c(=O)n1CC", "note": "[MLS000534135]", "IC50": "> 200"}, {"smiles": "O=C(NN=Cc1ccc(OC(=O)c2cccs2)cc1)c1cccc(F)c1", "note": "[MLS000576933]", "IC50": "> 200"}, {"smiles": "O=C(O)c1ccc(C=NNC(=O)c2ccc(CN3c4cccc5cccc(c45)S3(=O)=O)cc2)cc1", "note": "[MLS001003216]", "IC50": "> 200"}, {"smiles": "CC[n+]1c(/C=C/N(C)c2ccccc2)sc2ccc(Cl)cc21", "note": "[N-[(E)-2-(5-chloro-3-ethyl-1,3-benzothiazol-3-ium-2-yl)ethenyl]-N-methylaniline;perchlorate]", "IC50": "> 200"}, {"smiles": "CCN(CC)c1ccc(C=NC(C#N)C(=N)C#N)cc1", "note": "(centres undefined) [SMR000023871]", "IC50": "> 200"}, {"smiles": "Cc1ccc(S(=O)(=O)N[N-][C+]2C3CC4CC(C3)CC2C4)cc1[N+](=O)[O-]", "note": "[SMR000241699]", "IC50": "> 200"}, {"smiles": "Cc1cc(C)nc(NN=C2C(=O)N(Cc3ccc(Cl)cc3)c3ccccc32)n1", "note": "[SMR000248022]", "IC50": "> 200"}, {"smiles": "C=c1c(C#N)c2[nH]c(N)c(C#N)c(C)c-2c1=Cc1ccc(-c2ccccc2C(=O)O)o1", "note": "[SMR000277284]", "IC50": 20.6}, {"smiles": "CCN(CC)CCOC(=O)c1ccc(N=CC(C#N)c2nc(-c3ccc(OC)c(OC)c3)cs2)cc1", "note": "(centres undefined) [SMR000434079]", "IC50": 12.5}, {"smiles": "COC(=O)c1cc(NC(=O)c2ccccc2)c(=O)oc1CC=Nc1ccc(Oc2ccccc2)cc1", "note": "[methyl 5-benzamido-6-oxidanylidene-2-[(E)-2-[(4-phenoxyphenyl)amino]ethenyl]pyran-3-carboxylate]", "IC50": "> 200"}]}, {"target": "his6-Siah1 (aa 81-282) (Homo sapiens, UniProt Q8IUQ4)", "test": "blockers of Siah-1 interaction with plectin peptide – biochemical, fluorescence polarization, rhodamine-plectin, uHTS, primary screen (AID 1817)", "settings": "inactive by the depositor's call", "units": {"IC50": "µM"}, "values": [{"smiles": "CCCCNc1c2c3c(cccc3n(C)c1=O)C(=O)c1ccccc1-2", "note": "[1-Butylamino-3-methyl-3H-naphtho[1,2,3-de]quinoline-2,7-dione]", "IC50": 23.1}, {"smiles": "CC1(C)OC(C)(C)C(=CNc2ccc(O)cc2)C1=O", "note": "[4-[(4-hydroxyanilino)methylene]-2,2,5,5-tetramethyldihydro-3(2H)-furanone]", "IC50": 48.2}]}, {"target": "not listed separately", "test": "PubChem AID 1817", "settings": "not given", "units": {"IC50": "µM"}, "values": [{"smiles": "CCN1C(=O)C(=CNc2ccc(N3CCOCC3)cc2)C(=O)N(CC)C1=S", "IC50": 200}, {"smiles": "O=C1CCCC(=O)C1=NNc1ccc(C(=O)O)cc1", "note": "[SMR000370092]", "IC50": 200}]}]}
